Experimental data: US20080009418A1, “Selective Inhibitors” (Alchemia LTD., priority 2004, published 2008)

What was measured:
Human δ-opioid (DOP) = biological target: T1, Human δ-opioid (DOP) (Homo sapiens, UniProt P41143); assay: Radioligand binding, human δ-opioid (DOP) membranes, FlashPlate, [3H]-Bremazocine; settings: compound at 10 μM; [3H]-Bremazocine
T1 construct: purchased Perkin Elmer Biosignal
In short: (§1)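 Cloned human receptor membranes were coated onto FlashPlate wells and incubated with radioligand and compound (added from a 0.5 mM DMSO daughter plate) for 1 hour at room temperature in the dark. Scintillation counting gave percent inhibition, with DMSO defining total and reference ligand defining non-specific binding.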

Human κ-Opioid (KOP) = biological target: T2, Human κ-Opioid (KOP) (Homo sapiens, UniProt P41145); assay: Radioligand binding, human κ-opioid (KOP) membranes, filtration, [3H]-Diprenorphine; settings: compound at 10 μM; [3H]-Diprenorphine
T2 construct: purchased Perkin Elmer Biosignal
In short: (§2)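 Membranes from cloned human receptors were incubated with compound and radioligand for 1 hour at room temperature. Bound ligand was collected on 0.3% PEI-soaked filters, washed with cold 50 mM Tris-HCl pH 7.4, and counted by scintillation. Percent inhibition was computed against DMSO totals and reference-ligand nonspecific wells.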

Human Melanocortin (MC3) = biological target: T3, Human Melanocortin (MC3) (Homo sapiens, UniProt P41968); assay: Radioligand binding, human melanocortin MC3 membranes, FlashPlate, [125I]-NDP-αMSH; settings: compound at 10 μM; [125I]-NDP-αMSH
T3 construct: purchased Perkin Elmer Biosignal
In short: as §1

Human Melanocortin (MC4) = biological target: T4, Human Melanocortin (MC4) (Homo sapiens, UniProt P32245); assay: Radioligand binding, human melanocortin MC4 membranes, FlashPlate, [125I]-NDP-αMSH; settings: compound at 10 μM; [125I]-NDP-αMSH
T4 construct: purchased Perkin Elmer Biosignal
In short: as §1

Human melanocortin (MC5) = biological target: T5, Human melanocortin (MC5) (Homo sapiens, UniProt P33032); assay: Radioligand binding, human melanocortin MC5 membranes, FlashPlate, [125I]-NDP-αMSH; settings: compound at 10 μM; [125I]-NDP-αMSH
T5 construct: purchased Perkin Elmer Biosignal
In short: as §1

[1] = biological target: T6, Human melanin-concentrating hormone (MCH1) (Homo sapiens, UniProt Q99705); assay: Radioligand binding, human melanin-concentrating hormone MCH1 membranes, FlashPlate, [125I]-S36057; settings: compound at 10 μM; [125I]-S36057
T6 construct: purchased Perkin Elmer Biosignal
In short: as §1

Human μ-opioid (MOP) = biological target: T7, Human μ-opioid (MOP) (Homo sapiens, UniProt P35372); assay: Radioligand binding, human μ-opioid (MOP) membranes, FlashPlate, [3H]-Naloxone; settings: compound at 10 μM; [3H]-Naloxone
T7 construct: purchased Perkin Elmer Biosignal
In short: as §1

Human neurokinin (NK1) = biological target: T8, Human neurokinin (NK1) (Homo sapiens, UniProt P25103); assay: Radioligand binding, human neurokinin NK1 membranes, filtration, [125I]-Substance P; settings: compound at 10 μM; [125I]-Substance P
T8 construct: purchased Perkin Elmer Biosignal
In short: as §2

[2] = biological target: T9, Human neuropeptide Y (NPY-Y1) (Homo sapiens, UniProt P25929); assay: Radioligand binding, human neuropeptide Y NPY-Y1 membranes, FlashPlate, [125I]-PYY; settings: compound at 10 μM; [125I]-PYY
T9 construct: purchased Perkin Elmer Biosignal
T9 sequence (P25929 1-384): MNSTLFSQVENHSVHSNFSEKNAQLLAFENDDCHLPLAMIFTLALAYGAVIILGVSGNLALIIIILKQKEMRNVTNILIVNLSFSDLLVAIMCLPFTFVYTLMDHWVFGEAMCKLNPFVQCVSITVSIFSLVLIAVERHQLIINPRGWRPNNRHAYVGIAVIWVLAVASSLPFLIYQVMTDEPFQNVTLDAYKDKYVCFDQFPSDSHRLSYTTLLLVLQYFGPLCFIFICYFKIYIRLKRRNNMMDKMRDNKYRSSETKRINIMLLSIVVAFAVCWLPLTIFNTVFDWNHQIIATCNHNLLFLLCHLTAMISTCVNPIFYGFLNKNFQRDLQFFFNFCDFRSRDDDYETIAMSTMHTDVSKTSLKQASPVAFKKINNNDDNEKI
In short: as §1

Human opioid (ORL1) = biological target: T10, Human opioid (ORL1) (Homo sapiens, UniProt P41146); assay: Radioligand binding, human opioid ORL1 membranes, FlashPlate, [125I]-Nociceptin; settings: compound at 10 μM; [125I]-Nociceptin
T10 construct: purchased Perkin Elmer Biosignal
In short: as §1

Mouse urotensin (mUR2) = biological target: T11, Mouse urotensin (mUR2) (Mus musculus, UniProt Q8VIH9); assay: Radioligand binding, mouse urotensin mUR2 membranes, FlashPlate, [125I]-Urotensin II; settings: compound at 10 μM; [125I]-Urotensin II
T11 construct: purchased Perkin Elmer Biosignal
T11 sequence (Q8VIH9 1-385): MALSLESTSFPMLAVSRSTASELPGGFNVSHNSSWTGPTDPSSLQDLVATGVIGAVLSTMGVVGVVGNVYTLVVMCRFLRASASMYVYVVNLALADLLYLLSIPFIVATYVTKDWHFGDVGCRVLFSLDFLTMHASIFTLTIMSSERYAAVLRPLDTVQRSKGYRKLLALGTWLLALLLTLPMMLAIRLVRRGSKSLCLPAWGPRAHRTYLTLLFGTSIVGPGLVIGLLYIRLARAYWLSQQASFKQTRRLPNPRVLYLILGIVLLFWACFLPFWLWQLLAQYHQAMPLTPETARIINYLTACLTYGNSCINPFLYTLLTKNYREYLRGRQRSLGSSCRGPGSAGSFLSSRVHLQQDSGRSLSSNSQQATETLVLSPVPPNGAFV
In short: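 Cloned mouse urotensin (mUR2) receptor membranes from Perkin Elmer Biosignal were immobilized in FlashPlate microplates using a proprietary coating. Each well got 19.5 μl buffer, then 0.5 μl of DMSO, reference ligand, or compound. Adding 5 μl of [125I]-Urotensin II, diluted to 5× final concentration in binding buffer, started binding. Plates were sealed with TopSeal-A and incubated 1 hour at room temperature in the dark. Wells were counted for 30 seconds each on a TopCount after a 60-second delay, and percentage inhibition was calculated.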

T7 sequence (P35372 whole entry): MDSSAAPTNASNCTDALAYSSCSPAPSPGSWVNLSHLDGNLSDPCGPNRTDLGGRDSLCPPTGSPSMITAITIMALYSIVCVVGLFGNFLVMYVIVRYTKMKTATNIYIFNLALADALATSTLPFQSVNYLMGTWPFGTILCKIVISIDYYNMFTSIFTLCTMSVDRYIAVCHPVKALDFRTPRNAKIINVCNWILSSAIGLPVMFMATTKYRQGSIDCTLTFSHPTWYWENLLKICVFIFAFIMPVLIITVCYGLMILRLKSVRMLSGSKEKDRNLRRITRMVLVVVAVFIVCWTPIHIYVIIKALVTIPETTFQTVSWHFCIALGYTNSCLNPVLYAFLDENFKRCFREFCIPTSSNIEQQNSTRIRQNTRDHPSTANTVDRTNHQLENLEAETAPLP
T3 sequence (P41968 whole entry): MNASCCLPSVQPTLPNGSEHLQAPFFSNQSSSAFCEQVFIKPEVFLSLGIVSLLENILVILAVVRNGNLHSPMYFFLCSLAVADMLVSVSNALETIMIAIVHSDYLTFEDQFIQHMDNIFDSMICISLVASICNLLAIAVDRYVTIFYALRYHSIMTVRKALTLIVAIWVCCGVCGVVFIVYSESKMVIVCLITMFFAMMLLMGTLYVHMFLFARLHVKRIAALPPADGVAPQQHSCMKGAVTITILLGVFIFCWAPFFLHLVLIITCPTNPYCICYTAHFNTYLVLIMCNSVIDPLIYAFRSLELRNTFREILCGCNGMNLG
T2 sequence (P41145 whole entry): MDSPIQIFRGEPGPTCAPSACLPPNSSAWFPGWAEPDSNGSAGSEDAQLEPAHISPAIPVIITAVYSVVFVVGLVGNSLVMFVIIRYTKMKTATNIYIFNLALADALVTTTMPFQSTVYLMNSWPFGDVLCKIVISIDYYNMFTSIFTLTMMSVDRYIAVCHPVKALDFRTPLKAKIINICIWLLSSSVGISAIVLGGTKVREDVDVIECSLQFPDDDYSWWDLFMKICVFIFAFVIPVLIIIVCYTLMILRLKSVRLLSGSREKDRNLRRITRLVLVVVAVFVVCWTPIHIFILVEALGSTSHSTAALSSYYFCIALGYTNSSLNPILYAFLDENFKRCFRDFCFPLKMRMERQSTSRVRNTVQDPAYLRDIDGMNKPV
T5 sequence (P33032 whole entry): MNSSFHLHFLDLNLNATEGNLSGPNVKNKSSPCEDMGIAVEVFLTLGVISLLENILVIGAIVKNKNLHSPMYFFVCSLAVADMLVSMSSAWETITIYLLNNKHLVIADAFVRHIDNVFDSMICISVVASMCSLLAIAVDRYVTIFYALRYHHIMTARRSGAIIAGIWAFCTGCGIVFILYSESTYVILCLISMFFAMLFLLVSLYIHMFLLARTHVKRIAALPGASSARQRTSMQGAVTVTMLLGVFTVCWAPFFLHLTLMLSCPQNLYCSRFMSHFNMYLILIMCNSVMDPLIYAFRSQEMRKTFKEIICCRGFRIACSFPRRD
T1 sequence (P41143 whole entry): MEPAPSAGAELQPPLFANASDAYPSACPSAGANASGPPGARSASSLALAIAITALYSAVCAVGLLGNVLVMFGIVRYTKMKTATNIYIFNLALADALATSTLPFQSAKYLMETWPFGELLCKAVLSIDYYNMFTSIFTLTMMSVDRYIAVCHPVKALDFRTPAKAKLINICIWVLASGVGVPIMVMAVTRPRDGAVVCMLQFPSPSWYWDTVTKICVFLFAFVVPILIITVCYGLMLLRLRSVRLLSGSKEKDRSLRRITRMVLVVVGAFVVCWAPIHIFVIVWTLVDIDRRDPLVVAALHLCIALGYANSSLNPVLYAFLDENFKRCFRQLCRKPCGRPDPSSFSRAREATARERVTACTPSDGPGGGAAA
T8 sequence (P25103 whole entry): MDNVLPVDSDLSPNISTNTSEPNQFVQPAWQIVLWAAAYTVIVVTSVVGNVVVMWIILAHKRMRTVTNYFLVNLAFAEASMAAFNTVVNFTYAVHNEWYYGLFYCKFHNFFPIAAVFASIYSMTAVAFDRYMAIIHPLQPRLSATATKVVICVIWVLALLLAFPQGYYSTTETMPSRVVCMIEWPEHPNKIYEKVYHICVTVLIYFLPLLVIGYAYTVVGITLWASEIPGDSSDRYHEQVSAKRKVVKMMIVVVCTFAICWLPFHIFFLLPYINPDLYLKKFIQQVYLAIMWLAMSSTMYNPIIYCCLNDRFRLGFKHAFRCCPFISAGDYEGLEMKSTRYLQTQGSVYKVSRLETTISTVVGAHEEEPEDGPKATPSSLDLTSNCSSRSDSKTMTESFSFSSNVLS
T10 sequence (P41146 whole entry): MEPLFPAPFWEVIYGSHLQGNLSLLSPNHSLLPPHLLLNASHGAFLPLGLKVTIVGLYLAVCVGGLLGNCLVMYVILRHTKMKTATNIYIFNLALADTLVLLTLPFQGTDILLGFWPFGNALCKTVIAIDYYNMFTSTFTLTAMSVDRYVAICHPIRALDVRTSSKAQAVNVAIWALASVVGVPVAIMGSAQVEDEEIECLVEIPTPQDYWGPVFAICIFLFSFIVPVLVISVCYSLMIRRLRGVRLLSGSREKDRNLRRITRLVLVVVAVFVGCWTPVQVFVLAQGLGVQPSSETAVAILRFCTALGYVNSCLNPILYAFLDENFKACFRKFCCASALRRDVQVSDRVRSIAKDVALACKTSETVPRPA
T4 sequence (P32245 whole entry): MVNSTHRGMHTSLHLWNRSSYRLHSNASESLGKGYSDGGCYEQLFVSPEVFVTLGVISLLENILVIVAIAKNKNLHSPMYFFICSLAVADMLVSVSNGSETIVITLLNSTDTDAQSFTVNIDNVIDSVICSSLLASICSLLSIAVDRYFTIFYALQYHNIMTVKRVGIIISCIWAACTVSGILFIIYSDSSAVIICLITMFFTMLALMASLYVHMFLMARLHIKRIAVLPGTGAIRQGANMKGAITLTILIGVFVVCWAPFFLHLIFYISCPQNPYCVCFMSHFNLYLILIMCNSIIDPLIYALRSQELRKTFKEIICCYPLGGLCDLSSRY
T6 sequence (Q99705 whole entry): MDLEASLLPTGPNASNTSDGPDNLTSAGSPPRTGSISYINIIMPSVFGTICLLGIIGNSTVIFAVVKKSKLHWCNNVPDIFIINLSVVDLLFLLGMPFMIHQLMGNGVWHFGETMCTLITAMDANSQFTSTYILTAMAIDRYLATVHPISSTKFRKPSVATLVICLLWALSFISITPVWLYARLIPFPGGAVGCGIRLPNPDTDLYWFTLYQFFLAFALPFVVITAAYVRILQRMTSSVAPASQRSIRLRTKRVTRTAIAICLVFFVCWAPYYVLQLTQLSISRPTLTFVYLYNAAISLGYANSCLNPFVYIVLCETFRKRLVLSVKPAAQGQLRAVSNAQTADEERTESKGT

Row | SMILES | A1: inhibition of radioligand binding, human δ-opioid (DOP) (Human δ-opioid (DOP)) | A2: inhibition of radioligand binding, human κ-opioid (KOP) (Human κ-Opioid (KOP)) | A3: inhibition of radioligand binding, human melanocortin (MC3) (Human Melanocortin (MC3)) | A4: inhibition of radioligand binding, human melanocortin (MC4) (Human Melanocortin (MC4)) | A5: inhibition of radioligand binding, human melanocortin (MC5) (Human melanocortin (MC5)) | A6: inhibition of radioligand binding, human melanin-concentrating hormone (MCH1) [1] | A7: inhibition of radioligand binding, human μ-opioid (MOP) (Human μ-opioid (MOP)) | A8: inhibition of radioligand binding, human neurokinin (NK1) (Human neurokinin (NK1)) | A9: inhibition of radioligand binding, human neuropeptide Y (NPY-Y1) [2] | A10: inhibition of radioligand binding, human opioid (ORL1) (Human opioid (ORL1)) | A11: inhibition of radioligand binding, mouse urotensin (mUR2) (Mouse urotensin (mUR2))
1 | CO[C@H]1[C@H](O)[C@@H](COCc2ccc3ccccc3c2)OC(OCc2ccc(Cl)cc2)[C@@H]1NC(=O)C1CCCN(C(=N)N)C1 (stereo partly shown) [compound 353] | − (“−” indicates less than 50% inhibition at 10 μM) | − (“−” indicates less than 50% inhibition at 10 μM) | − (“−” indicates less than 50% inhibition at 10 μM) | − (“−” indicates less than 50% inhibition at 10 μM) | − (“−” indicates less than 50% inhibition at 10 μM) | − (“−” indicates less than 50% inhibition at 10 μM) | − (“−” indicates less than 50% inhibition at 10 μM) | + (“+” indicates greater than 50% inhibition at 10 μM) | − (“−” indicates less than 50% inhibition at 10 μM) | − (“−” indicates less than 50% inhibition at 10 μM) | − (“−” indicates less than 50% inhibition at 10 μM)
2 | CO[C@H]1[C@H](O)[C@@H](COCc2ccc3ccccc3c2)OC(OCc2ccc(Cl)cc2)[C@@H]1NC(=O)C1CCN(C(=N)N)CC1 (stereo partly shown) [compound 354] | − (“−” indicates less than 50% inhibition at 10 μM) | − (“−” indicates less than 50% inhibition at 10 μM) | − (“−” indicates less than 50% inhibition at 10 μM) | + (“+” indicates greater than 50% inhibition at 10 μM) | + (“+” indicates greater than 50% inhibition at 10 μM) | − (“−” indicates less than 50% inhibition at 10 μM) | − (“−” indicates less than 50% inhibition at 10 μM) | + (“+” indicates greater than 50% inhibition at 10 μM) | − (“−” indicates less than 50% inhibition at 10 μM) | − (“−” indicates less than 50% inhibition at 10 μM) | − (“−” indicates less than 50% inhibition at 10 μM)
3 | CO[C@H]1[C@H](O)[C@@H](COCc2ccc3ccccc3c2)OC(OCc2ccc(Cl)cc2)[C@@H]1NC(=O)CNC(=N)N (stereo partly shown) [compound 355] | − (“−” indicates less than 50% inhibition at 10 μM) | − (“−” indicates less than 50% inhibition at 10 μM) | − (“−” indicates less than 50% inhibition at 10 μM) | + (“+” indicates greater than 50% inhibition at 10 μM) | + (“+” indicates greater than 50% inhibition at 10 μM) | − (“−” indicates less than 50% inhibition at 10 μM) | − (“−” indicates less than 50% inhibition at 10 μM) | + (“+” indicates greater than 50% inhibition at 10 μM) | − (“−” indicates less than 50% inhibition at 10 μM) | − (“−” indicates less than 50% inhibition at 10 μM) | − (“−” indicates less than 50% inhibition at 10 μM)
4 | CC(=O)N[C@H]1C(NC(=O)CCN)O[C@H](CO)[C@@H](O)[C@@H]1OCc1cccc2ccccc12 (stereo partly shown) [compound 356] | − (“−” indicates less than 50% inhibition at 10 μM) | − (“−” indicates less than 50% inhibition at 10 μM) | − (“−” indicates less than 50% inhibition at 10 μM) | − (“−” indicates less than 50% inhibition at 10 μM) | − (“−” indicates less than 50% inhibition at 10 μM) | − (“−” indicates less than 50% inhibition at 10 μM) | − (“−” indicates less than 50% inhibition at 10 μM) | − (“−” indicates less than 50% inhibition at 10 μM) | + (“+” indicates greater than 50% inhibition at 10 μM) | − (“−” indicates less than 50% inhibition at 10 μM) | − (“−” indicates less than 50% inhibition at 10 μM)
5 | Cc1ccc(CO[C@H]2[C@H](O)[C@@H](CO)OC(NC(=O)CCN)[C@@H]2NC(=O)c2ccccc2)cc1 (stereo partly shown) [compound 357] | − (“−” indicates less than 50% inhibition at 10 μM) | − (“−” indicates less than 50% inhibition at 10 μM) | − (“−” indicates less than 50% inhibition at 10 μM) | − (“−” indicates less than 50% inhibition at 10 μM) | − (“−” indicates less than 50% inhibition at 10 μM) | + (“+” indicates greater than 50% inhibition at 10 μM) | − (“−” indicates less than 50% inhibition at 10 μM) | − (“−” indicates less than 50% inhibition at 10 μM) | − (“−” indicates less than 50% inhibition at 10 μM) | − (“−” indicates less than 50% inhibition at 10 μM) | − (“−” indicates less than 50% inhibition at 10 μM)
